Like-named read-outs stand apart in the source and are kept apart here. Some results are limits rather than exact numbers.

For data set [1] the following is noted: rcm bond, 90.0 °C.
Data set [2] concerns the target T1, Human Calpain 1/NS1 (Homo sapiens, UniProt P07384).
T1 sequence (P07384 1-714): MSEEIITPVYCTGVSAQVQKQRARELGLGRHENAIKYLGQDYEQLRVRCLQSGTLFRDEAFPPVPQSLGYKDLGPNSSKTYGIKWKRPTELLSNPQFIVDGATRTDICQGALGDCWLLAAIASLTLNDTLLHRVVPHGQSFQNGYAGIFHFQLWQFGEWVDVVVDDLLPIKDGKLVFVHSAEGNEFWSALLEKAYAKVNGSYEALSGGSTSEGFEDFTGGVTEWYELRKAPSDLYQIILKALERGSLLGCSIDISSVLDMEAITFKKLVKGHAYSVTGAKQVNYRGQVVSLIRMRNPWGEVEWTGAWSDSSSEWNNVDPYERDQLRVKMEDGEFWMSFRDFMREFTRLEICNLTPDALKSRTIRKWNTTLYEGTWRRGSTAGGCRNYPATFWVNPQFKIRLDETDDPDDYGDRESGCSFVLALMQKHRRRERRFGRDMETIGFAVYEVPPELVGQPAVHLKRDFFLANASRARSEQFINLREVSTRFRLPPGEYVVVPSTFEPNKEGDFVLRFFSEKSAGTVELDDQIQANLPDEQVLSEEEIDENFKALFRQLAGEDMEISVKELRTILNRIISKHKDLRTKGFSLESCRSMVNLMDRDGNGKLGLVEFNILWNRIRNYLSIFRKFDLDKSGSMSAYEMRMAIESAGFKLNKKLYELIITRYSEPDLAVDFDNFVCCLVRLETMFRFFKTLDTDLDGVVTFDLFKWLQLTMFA
T1 sequence (P04632 1-268 partner): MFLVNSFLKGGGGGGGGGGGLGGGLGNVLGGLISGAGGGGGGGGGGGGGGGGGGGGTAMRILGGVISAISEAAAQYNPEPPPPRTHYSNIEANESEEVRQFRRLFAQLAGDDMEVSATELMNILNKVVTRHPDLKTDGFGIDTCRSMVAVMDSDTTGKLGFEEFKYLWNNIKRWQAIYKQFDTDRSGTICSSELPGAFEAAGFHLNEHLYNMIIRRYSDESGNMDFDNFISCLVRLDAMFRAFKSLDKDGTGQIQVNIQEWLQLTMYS
The data set is described as follows: Biochemical inhibition of calpain 1, continuous fluorescence (FRET substrate) assay. The conditions noted are these: mean, read-out: Human Calpain 1/NS1 IC50 (nM)_MEAN. The method, boiled down:
(§1)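 Continuous FRET assay with 5-FAM/QXL520 peptide substrate in 50 mM Tris pH ~7.5, 100 mM NaCl, 1 mM DTT. Enzyme preincubated with inhibitor at 25C; reaction started with substrate plus CaCl2, read at 490/520 nm for 10 min. Rates from slopes over 1-5 min, IC50 from 4-parameter logistic fit.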

Data set [3] concerns the target T2, Human Calpain 9/NS1 (Homo sapiens, UniProt O14815).
T2 sequence (O14815 1-690): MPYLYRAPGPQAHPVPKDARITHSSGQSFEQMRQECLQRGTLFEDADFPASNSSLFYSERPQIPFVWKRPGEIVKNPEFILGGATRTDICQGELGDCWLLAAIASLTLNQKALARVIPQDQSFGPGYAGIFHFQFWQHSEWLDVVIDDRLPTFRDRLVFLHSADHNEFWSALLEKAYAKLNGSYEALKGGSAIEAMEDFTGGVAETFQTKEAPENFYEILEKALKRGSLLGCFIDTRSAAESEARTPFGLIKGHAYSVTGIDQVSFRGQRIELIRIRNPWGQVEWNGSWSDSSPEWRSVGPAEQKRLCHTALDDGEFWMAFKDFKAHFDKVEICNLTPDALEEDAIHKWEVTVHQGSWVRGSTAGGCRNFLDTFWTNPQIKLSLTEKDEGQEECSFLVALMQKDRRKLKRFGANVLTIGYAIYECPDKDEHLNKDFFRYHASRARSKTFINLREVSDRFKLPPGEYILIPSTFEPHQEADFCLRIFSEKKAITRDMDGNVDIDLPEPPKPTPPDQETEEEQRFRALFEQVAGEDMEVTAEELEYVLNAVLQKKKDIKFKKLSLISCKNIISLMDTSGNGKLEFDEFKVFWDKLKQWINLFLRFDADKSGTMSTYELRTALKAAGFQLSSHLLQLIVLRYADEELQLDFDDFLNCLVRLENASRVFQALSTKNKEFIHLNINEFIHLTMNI
T2 sequence (P04632 1-268 partner): T1 sequence (P04632 1-268 partner)
The data set is described as follows: Biochemical inhibition of calpain 9, continuous fluorescence (FRET substrate) assay. Particulars: mean, read-out: Human Calpain 9/NS1 IC50 (nM)_MEAN. The method, boiled down:
as §1

For data set [4], the target named is T3, Human Calpain 2/NS1 (Homo sapiens, UniProt P17655).
T3 sequence (P17655 1-700): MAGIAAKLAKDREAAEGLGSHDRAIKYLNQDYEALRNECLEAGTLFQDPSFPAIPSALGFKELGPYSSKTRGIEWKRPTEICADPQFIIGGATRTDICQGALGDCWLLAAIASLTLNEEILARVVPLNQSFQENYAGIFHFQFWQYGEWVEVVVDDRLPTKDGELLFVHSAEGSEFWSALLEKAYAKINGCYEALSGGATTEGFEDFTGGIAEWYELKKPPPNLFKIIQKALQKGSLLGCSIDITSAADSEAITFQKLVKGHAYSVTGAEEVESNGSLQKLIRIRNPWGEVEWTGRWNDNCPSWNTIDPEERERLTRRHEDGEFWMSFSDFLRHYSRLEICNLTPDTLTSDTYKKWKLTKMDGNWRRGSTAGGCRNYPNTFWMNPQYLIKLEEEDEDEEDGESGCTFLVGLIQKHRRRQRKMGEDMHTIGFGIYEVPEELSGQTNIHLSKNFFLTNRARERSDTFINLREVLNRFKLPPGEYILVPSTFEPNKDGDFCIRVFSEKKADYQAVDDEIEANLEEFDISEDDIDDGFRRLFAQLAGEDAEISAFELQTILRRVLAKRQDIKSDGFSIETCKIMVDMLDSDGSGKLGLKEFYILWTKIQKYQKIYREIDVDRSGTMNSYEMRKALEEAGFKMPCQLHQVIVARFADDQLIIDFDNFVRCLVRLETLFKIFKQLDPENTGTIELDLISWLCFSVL
T3 sequence (P04632 1-268 partner): T1 sequence (P04632 1-268 partner)
Nature of the data set: Biochemical inhibition of calpain 2, continuous fluorescence (FRET substrate) assay. The conditions noted are these: mean, read-out: Human Calpain 2/NS1 IC50 (nM)_MEAN. An outline of the steps: as §1

With `COC(=O)[C@@H]1Cc2ccc(cc2)CC=CCc2ccc3nn(cc3c2)-c2ncccc2C(=O)N1`, the ring closure, yield of all isomers in data set [1] (from C=CCc1ccc(C[C@H](NC(=O)c2cccnc2-n2cc3cc(CC=C)ccc3n2)C(=O)OC)cc1, Zhan catalyst-1B, DCE, 3.09 mM, 14.0 h) is 19.4%.
Take `COC(=O)[C@@H]1Cc2ccc(cc2)CC=CCc2cccc(c2)-c2ccn(n2)-c2ncccc2C(=O)N1`: in data set [1] (from C=CCc1ccc(C[C@H](NC(=O)c2cccnc2-n2ccc(-c3cccc(CC=C)c3)n2)C(=O)OC)cc1, Hoveyda-Grubbs catalyst 1st generation, DCE, 4.94 mM, 64.0 h), the ring closure, yield of all isomers was determined as 43.6%.
In turn, `COC(=O)[C@@H]1Cc2ccc(cc2)OCC=CCOc2cccc(c2)-c2ccn(n2)-c2ncccc2C(=O)N1` gave a ring closure, yield of all isomers in data set [1] (from C=CCOc1ccc(C[C@H](NC(=O)c2cccnc2-n2ccc(-c3cccc(OCC=C)c3)n2)C(=O)OC)cc1, Grubbs II, 1,2-dichloroethane, 8.35 mM, 48.0 h) of 47%.
In the case of `O=C(NCc1ccc(OC(F)(F)F)cc1)C(=O)C1CCCCOCCOCc2ccccc2C(=O)N1` (stereo not drawn) [Compound 87, 2-Oxo-2-(12-oxo-1,3,4,6,7,8,9,10,11,12-decahydrobenzo[f][1,4]dioxa[9]aza-cyclotetradecin-10-yl)-N-(4-(trifluoromethoxy)benzyl)acetamide], the IC50 in data set [2] was above 10000 nM; in data set [3] it was below 3000 nM; in data set [4] it was above 10000 nM.
Regarding `O=C[C@@H]1Cc2ccccc2CCCOCCCn2cncc2C(=O)N1` [Compound 22], the values for the IC50 in data set [2], in data set [3] and in data set [4] were 3000 to 10000 nM, above 10000 nM and 3000 to 10000 nM, respectively.
On to `O=C[C@@H]1CC=CCOCCn2ccc3cccc(c32)C(=O)N1` [Compound 9], for which the IC50 was above 10000 nM in data set [2], below 3000 nM in data set [3] and below 3000 nM in data set [4].
For `CC(C)(NC(=O)C(=O)C1CCCCOCCOCc2ccccc2C(=O)N1)c1cccnc1` (stereo not drawn) [Compound 124, 2-Oxo-2-(12-oxo-1,3,4,6,7,8,9,10,11,12-decahydrobenzo[f][1,4]dioxa[9]azacyclotetradecin-10-yl)-N-(2-(pyridin-3-yl)propan-2-yl)acetamide], the IC50 in data set [2], in data set [3] and in data set [4] was above 10000 nM in each case.
Take `O=C[C@@H]1CCCCOCCOCc2ccccc2C(=O)N1` [Compound 43, (S)-12-Oxo-1,3,4,6,7,8,9,10,11,12-decahydrobenzo[f][1,4]dioxa[9]aza-cyclotetradecine-10-carbaldehyde]: the IC50 in data set [2] is above 10000 nM; in data set [3], below 3000 nM; in data set [4] it was below 3000 nM.
As for `O=C[C@@H]1CCCCCCOc2ccccc2C(=O)N1` [Compound 24, (S)-10-Oxo-3,4,5,6,7,8,9,10-octahydro-2h-benzo[b][1]oxa[5]aza-cyclododecine-8-carbaldehyde], the IC50 in data set [2] is above 10000 nM; in data set [3] it was below 3000 nM; in data set [4], below 3000 nM.
For `O=C(NCCCN1CCOCC1)C(=O)C1CCCCOCCOCc2ccccc2C(=O)N1` (stereo not drawn) [Compound 92, N-(3-morpholinopropyl)-2-oxo-2-(12-oxo-1,3,4,6,7,8,9,10,11,12-decahydrobenzo[f][1,4]dioxa[9]azacyclotetradecin-10-yl)acetamide], the IC50 in data set [2] is above 10000 nM; in data set [3], 3000 to 10000 nM; in data set [4], above 10000 nM.
Regarding `O=C(NC1CC1)C(=O)[C@@H]1Cc2ccc(cc2)OCCCCOc2ccc3c(cnn3-c3ncccc3C(=O)N1)c2` [Compound 68, N-cyclopropyl-2-oxo-2-((5S)-3-oxo-1^1H-8,13-dioxa-4-aza-1(1,5)-indazola-2(2,3)-pyridina-7(1,4)-benzenacyclotridecaphane-5-yl)acetamide], the IC50 in data set [2], in data set [3] and in data set [4] was below 3000 nM in each case.
Regarding `NC(=O)C(=O)[C@@H]1CCCCCOc2cccc(c2)-c2n[nH]cc2C(=O)N1` [Compound 140, (S)-2-oxo-2-(11-oxo-1H-3-oxa-10-aza-1(3,4)-pyrazola-2(1,3)-benzena-cycloundecaphane-9-yl)acetamide], the IC50 in data set [2], in data set [3] and in data set [4] was below 3000 nM each time.
Regarding `C#CCNC(=O)C(=O)C1CCCCOCCOCc2ccccc2C(=O)N1` (stereo not drawn) [Compound 85, 2-Oxo-2-(12-oxo-1,3,4,6,7,8,9,10,11,12-decahydrobenzo[f][1,4]dioxa[9]aza-cyclotetradecin-10-yl)-N-(prop-2-yn-1-yl)acetamide], the figures for the IC50 in data set [2], in data set [3] and in data set [4] were above 10000 nM, 3000 to 10000 nM and above 10000 nM, respectively.
Consider `O=C(NCCc1ccc(Cl)cc1)C(=O)[C@@H]1CCCCOCCOCc2ccccc2C(=O)N1` [Compound 128, (S)—N-(4-chlorophenethyl)-2-oxo-2-(12-oxo-1,3,4,6,7,8,9,10,11,12-decahydrobenzo[f][1,4]dioxa[9]azacyclotetradecin-10-yl)acetamide], for which the IC50 is 3000 to 10000 nM in data set [2], below 3000 nM in data set [3] and below 3000 nM in data set [4].
For `CON(C)C(=O)[C@@H]1C/C=C\CCOc2ccnc(n2)-c2ccccc2C(=O)N1` [Compound 136, (S,Z)—N-methoxy-N-methyl-3-oxo-11-oxa-4-aza-1(2,4)-pyrimidina-2(1,2)-benzenacycloundecaphan-7-ene-5-carboxamide], the IC50 in data set [2], in data set [3] and in data set [4] was above 10000 nM throughout.
With `COc1cc(CNC(=O)C(=O)C2CCCCOCCOCc3ccccc3C(=O)N2)cc(OC)c1` (stereo not drawn) [Compound 119, N-(3,5-dimethoxybenzyl)-2-oxo-2-(12-oxo-1,3,4,6,7,8,9,10,11,12-decahydrobenzo[f][1,4]dioxa[9]azacyclotetradecin-10-yl)acetamide], the IC50 in data set [2] is above 10000 nM; in data set [3], below 3000 nM; in data set [4], 3000 to 10000 nM.
On to `CCNC(=O)C(=O)[C@@H]1CC=CCCCCCc2ccccc2C(=O)N1` [Compound 26, (S)—N-ethyl-2-oxo-2-(1-oxo-2,3,4,7,8,9,10,11-octahydro-1h-benzo[c][1]azacyclotridecin-3-yl)acetamide], for which the IC50 was above 10000 nM in data set [2], 3000 to 10000 nM in data set [3] and above 10000 nM in data set [4].

Values taken from US11292801B2, “Calpain modulators and therapeutic uses thereof” (Blade Therapeutics, Inc., priority 2016, dated 2022).
